Experimental data taken from patent publication US20160002247A1, “8-SUBSTITUTED IMIDAZOPYRIMIDINONE DERIVATIVE HAVING AUTOTAXIN INHIBITORY ACTIVITY” (THE UNIVERSITY OF TOKYO, priority 2013, published 2016).
Like-named read-outs stand apart in the source and are kept apart here.

Target: T1, Human autotaxin enzyme (Homo sapiens, UniProt Q13822)
T1 construct: purchased R&D System
Assay: Evaluation of autotaxin inhibitor, Method C (Test Example 3): 18:0 Lyso PC, choline assay, Resorufin fluorescence
Assay type: biochemical
Experimental: (Method C) Evaluation of Autotaxin Inhibitor
Solution B containing 100 mM Tris-HCl buffer (pH7.5), 150 mM NaCl, 5 mM MgCl2 and 0.05% Triton X-100 was prepared. Human autotaxin enzyme (purchased from R&D System) was diluted with Solution B, and 2.5 μL of which was added to a solution of test compound in DMSO. Furthermore, 2.5 μl of 200 μM 18:0 Lyso PC (purchased from Avanti Polar Lipids) in Solution B was added and allowed to react at room temperature for 2 hours. After completion of the reaction, 15 μL of the coline assay reagent (100 mM Tris-HCl buffer (pH7.5), 5 mM MgCl2, 77 μg/mL choline oxidase, 10 μg/mL peroxidase, 25 μM 10-acetyl-3,7-dihydroxyphenoxazine and excess autotaxin inhibitor) was added and allowed to react at room temperature for 20 minutes. The fluorescent dye Resorufin, which was produced by the reaction, was detected. The fluorescence was detected using ViewLux (PerkinElmer, Inc.) with an excitation wavelength of 531 nm and a fluorescence wavelength of 598 nm.
The percent inhibition of the test compound was calculated by assuming the sample with no test compound as 0% inhibition and the sample with no enzyme as 100% inhibition, and the percent inhibitions at different concentrations of the test compound were plotted to obtain a concentration-dependent curve.

[1] = Assay Method: Method C (Test Example 3), read-out: Inhibitory Activity (Enzyme Inhibitory Activity, IC50)
[2] = Assay Method C (Test Example 3), human autotaxin, 18:0 Lyso PC substrate, read-out: Inhibitory Activity (autotaxin enzyme inhibitory activity, IC50 class)

| Compound | IC50 [1] [nM] | IC50 [2] [nM] |
| --- | --- | --- |
| CCCC(=O)Cn1c(C)cc(=O)n2cc(-c3ccc(Cl)cc3)nc12 [Compound 41] | 100 to 1000 |  |
| Cc1cc(=O)n2cc(-c3ccc(Cl)cc3)nc2n1CCCC(C)O (stereo not drawn) [Compound 46] | > 1000 |  |
| CCC(O)CCn1c(C)cc(=O)n2cc(-c3ccc(Cl)cc3)nc12 (stereo not drawn) [Compound 47] | > 1000 |  |
| CCC(=O)CCn1c(C)cc(=O)n2cc(-c3ccc(Cl)cc3)nc12 [Compound 48] | > 1000 |  |
| Cc1cc(=O)n2cc(-c3ccc(Cl)cc3)nc2n1CCCC(C)F (stereo not drawn) [Compound 49] | 100 to 1000 |  |
| Cc1cc(=O)n2cc(-c3ccc(Cl)cc3)nc2n1CCCCC#N [Compound 63] | 100 to 1000 |  |
| Cc1cc(=O)n2cc(-c3ccc(Cl)cc3)nc2n1CCCCCC#N [Compound 98] |  | 10 to 100 |
| Cc1cc(=O)n2cc(-c3ccc(Cl)cc3)nc2n1Cc1c(F)cccc1F [Compound 119] |  | 100 to 1000 |
| O=c1cc(Cl)[nH]c2nc([C@H]3CC[C@H](C(F)(F)F)CC3)cn12 [Compound 135, 7-chloro-2-((1r,4r)-4-(trifluoromethyl)cyclohexyl)imidazo[1,2-a]pyrimidin-5(8H)-one] |  | > 1000 |
| NC(=O)c1ccc(-c2cc(=O)n3cc([C@H]4CC[C@H](C(F)(F)F)CC4)nc3n2CCCC(F)(F)F)cc1 [Compound 136, 4-(5-oxo-8-(4,4,4-trifluorobutyl)-2-((1r,4r)-4-(trifluoromethyl)cyclohexyl)-5,8-dihydroimidazo[1,2-a]pyrimidine-7-yl)benzamide] |  | 100 to 1000 |
| CCCCCn1c(C)cc(=O)n2cc(C3CCC(C(F)(F)F)CC3)nc12 (stereo not drawn) [Compound 137] |  | 100 to 1000 |
| O=C(O)c1ccc(-c2cc(=O)n3cc([C@H]4CC[C@H](C(F)(F)F)CC4)nc3n2CCCC(F)(F)F)cc1 [Compound 164] |  | 10 to 100 |
| O=C(NCCN1CC2(COC2)C1)c1ccc(-c2cc(=O)n3cc([C@H]4CC[C@H](C(F)(F)F)CC4)nc3n2CCCC(F)(F)F)cc1 [Compound 165] |  | 10 to 100 |
| CCCCCn1c(C)cc(=O)n2cc(-c3ccc(C(=O)O)cc3)nc12 [Compound 166] |  | > 1000 |
| CCCCCn1c(N2CCN(CCC(=O)c3ccc4[nH]c(=O)oc4c3)CC2)cc(=O)n2cc(-c3ccc(Cl)cc3)nc12 [Compound 190] |  | 10 to 100 |
| CCCCCn1c(NCc2ccc(C(=O)O)cc2)cc(=O)n2cc(-c3ccc(Cl)cc3)nc12 [Compound 192] |  | 10 to 100 |
| CCCCCn1c(OCc2ccc(C(=O)O)cc2)cc(=O)n2cc(-c3ccc(Cl)cc3)nc12 [Compound 194] |  | 10 to 100 |

| Compound | IC50 [1] [nM] | IC50 [2] [nM] |
| --- | --- | --- |
| CCCCCn1c(N(C)Cc2ccc(C(=O)O)cc2)cc(=O)n2cc(-c3ccc(Cl)cc3)nc12 [Compound 197] |  | 10 to 100 |
| N#CCCCCn1c(NCc2ccc(C(=O)O)cc2)cc(=O)n2cc(-c3ccc(C(F)(F)F)cc3)nc12 [Compound 198] |  | 10 to 100 |
| CCCCCn1c(C)c(CC(=O)OCC)c(=O)n2cc(-c3ccc(Cl)cc3)nc12 [Compound 202] |  | 10 to 100 |
| CCCCCn1c(C)c(CCO)c(=O)n2cc(-c3ccc(Cl)cc3)nc12 [Compound 207] |  | 10 to 100 |
| CCCCCn1c(N(C)Cc2ccccc2)cc(=O)n2cc(-c3ccc(Cl)cc3)nc12 [Compound 219] |  | 10 to 100 |
| CCCCCn1c(N2CCN(C(C)=O)CC2)cc(=O)n2cc(-c3ccc(Cl)cc3)nc12 [Compound 242] |  | 10 to 100 |
| N#CCCCCn1c(N2CCC(C(=O)O)CC2)cc(=O)n2cc(-c3ccc(Cl)cc3)nc12 [Compound 282] |  | 10 to 100 |
| N#CCCCCn1c(N2CCC(C(=O)O)CC2)cc(=O)n2cc(-c3ccc(C#N)cc3)nc12 [Compound 284] |  | 10 to 100 |
| N#CCCCCn1c(NCc2ccc(C(=O)O)cc2)cc(=O)n2cc(-c3ccc(C#N)cc3)nc12 [Compound 288] |  | 10 to 100 |
| CCCCCn1c(N2CCN(C(=O)N3CCCCC3)CC2)cc(=O)n2cc(-c3ccc(Cl)cc3)nc12 [Compound 291] |  | 100 to 1000 |
| CCCCCn1c(N2CCN(C(=O)c3ccc([N+](=O)[O-])cc3)CC2)cc(=O)n2cc(-c3ccc(Cl)cc3)nc12 [Compound 292] |  | 100 to 1000 |
| CCCCCn1c(N2CCNC(=O)C2)cc(=O)n2cc(-c3ccc(Cl)cc3)nc12 [Compound 293] |  | 100 to 1000 |
| CCCCCn1c(N2CCC(NC(C)=O)CC2)cc(=O)n2cc(-c3ccc(Cl)cc3)nc12 [Compound 294] |  | 100 to 1000 |
| CCCCCn1c(N2CCC(C(=O)NC)CC2)cc(=O)n2cc(-c3ccc(Cl)cc3)nc12 [Compound 295] |  | 100 to 1000 |
| CCCCCn1c(N2CCN(S(=O)(=O)N3CCOCC3)CC2)cc(=O)n2cc(-c3ccc(Cl)cc3)nc12 [Compound 296] |  | 100 to 1000 |
| CCCCCn1c(N2CCN(S(=O)(=O)N(C)C)CC2)cc(=O)n2cc(-c3ccc(Cl)cc3)nc12 [Compound 297] |  | 100 to 1000 |
